This note sets out measurements from ChEMBL document CHEMBL5321235, “Design, synthesis, and SAR study of novel flavone 1,2,4-oxadiazole derivatives with anti-inflammatory activities for the treatment of Parkinson's disease” (Eur J Med Chem, 2023).

In series [1] the test system is BV-2. Briefly: Inhibition of LPS-induced ROS production in mouse BV-2 cells at 5 uM pretreated for 18 hrs followed by LPS-stimulation and measured after 6 hrs by fluorescence microscopic analysis. In kind it is functional, cell-based. Conditions: time 24.0 hrs.
For series [2], the system named is BV-2. Briefly: Antiinflammatory activity in mouse BV-2 cells assessed as inhibition of LPS-induced NO production at 5 uM pretreated for 18 hrs followed by LPS-induction and measured after 6 hrs relative to control. In kind it is functional. Set-up: scale not given: the % may be the effect or the level left. The settings on record: time 24 hrs.
Another series relates to Microglia. Briefly: Neuroprotective activity against MPTP-induced apoptosis in mouse microglia assessed as reduction in apoptotic cells in brain tissue at 15 mg/kg, ip administered with compound once daily for 2 weeks followed by MPTP addition on day 8 and measured after 2 weeks of compound addition by TUNEL staining based immunofluorescence analysis. The class given is functional, organism-based.

The test system of series [3] is BV-2. Briefly: Cytotoxicity against mouse BV-2 cells assessed as reduction in cell viability at 5 uM pretreated for 18 hrs followed by LPS-stimulation and measured after 6 hrs by MTT assay. In kind it is toxicity, cell-based. The settings on record: bv-2, 24 h. (In general: Formazan colour is commonly taken as a measure of viable cells.)
For series [4], the system named is BV-2. Briefly: Cytotoxicity against mouse BV-2 cells assessed as reduction in cell viability at 10 uM pretreated for 18 hrs followed by LPS-stimulation and measured after 6 hrs by MTT assay. The settings on record: bv-2, 24 h. In kind it is toxicity, cell-based.

Active and inactive are the calls of the source. The calls are words filed in the database; no cut-off is given here.

With `COc1ccccc1-c1noc(-c2cccc3c(=O)c(C)c(-c4ccccc4)oc23)n1`, the inhibition result with BV-2 [1] is “inactive”. The Activity in the series with BV-2 [2] is on record as 41.6%.

In the case of `COc1ccc(-c2coc3cc(O)cc(O)c3c2=O)cc1`, the inhibition entry in the series on BV-2 [1] is “Active”.

For `C#CCN[C@@H]1CCc2ccccc21`, the inhibition result in the series on BV-2 [1] is “Active”. Moreover, the outcome with Microglia was Active.

For `Cc1c(-c2ccccc2)oc2c(-c3nc(-c4ccccc4F)no3)cccc2c1=O`, in the series on BV-2 [1], the inhibition result is “Active”. Further, the Activity with BV-2 [2] came to 41.6%.

Turning to `Cc1c(-c2ccccc2)oc2c(-c3nc(-c4ccc(Br)cc4)no3)cccc2c1=O`, the Activity entry in the series with BV-2 [3] is “Non-Toxic”; in the series with BV-2 [2], 41.6%. Further, the inhibition result in the series with BV-2 [1] is “Active”.

On to `Cc1ccc(-c2noc(-c3ccc(F)c(F)c3)n2)cn1`, for which, in the series with BV-2 [1], the inhibition result is “Active”.

For `Cc1c(-c2ccccc2)oc2c(-c3nc(-c4ccc(F)cc4)no3)cccc2c1=O`, the Activity entry in the series with BV-2 [3] is recorded as “Non-Toxic”; in the series with BV-2 [4] it was “Non-Toxic”; in the series on BV-2 [2], 41.6%. In addition, the inhibition entry in the series on BV-2 [1] is “Active”.

Regarding `CCc1ccc(-c2noc(-c3cccc4c(=O)c(C)c(-c5ccccc5)oc34)n2)cc1`, the inhibition result in the series with BV-2 [1] is “Active”. Besides, in the series with BV-2 [2], the Activity is listed as 41.6%.

`Cc1c(-c2ccccc2)oc2c(-c3nc(-c4cccc(F)c4)no3)cccc2c1=O`: the inhibition entry in the series on BV-2 [1] was “Active”. In addition, the Activity in the series with BV-2 [2] is 22.4%.

`COc1cccc(-c2noc(-c3cccc4c(=O)c(C)c(-c5ccccc5)oc34)n2)c1`: the inhibition entry with BV-2 [1] was “inactive”. Besides, the Activity in the series on BV-2 [2] turned out to be 22.4%.

`Cc1c(-c2ccccc2)oc2c(-c3nc(-c4cccc(Br)c4)no3)cccc2c1=O`: the results for the Activity result with BV-2 [3] and in the series on BV-2 [2] were “Non-Toxic” and 41.6%, respectively. Further, the inhibition entry with BV-2 [1] was “Active”.

In the case of `COc1ccc(-c2noc(-c3cccc4c(=O)c(C)c(-c5ccccc5)oc34)n2)cc1`, in the series on BV-2 [1], the inhibition result is “Active”. Further, the Activity in the series with BV-2 [2] stood at 22.4%.

On to `Cc1c(-c2ccccc2)oc2c(-c3nc(-c4ccccc4)no3)cccc2c1=O`, for which the inhibition entry with BV-2 [1] is “Active”. The Activity in the series on BV-2 [2] amounted to 22.4%.

In the case of `Cc1ccc(-c2noc(-c3cccc4c(=O)c(C)c(-c5ccccc5)oc34)n2)cc1`, the inhibition result in the series on BV-2 [1] was “Active”. Besides, the Activity in the series with BV-2 [2] was determined as 22.4%.

As to `Cc1c(-c2ccccc2)oc2c(-c3nc(-c4ccsc4)no3)cccc2c1=O`, the inhibition entry in the series with BV-2 [1] was “Active”.

Consider `Cc1ccccc1-c1noc(-c2cccc3c(=O)c(C)c(-c4ccccc4)oc23)n1`, for which, in the series on BV-2 [1], the inhibition entry was “Active”. In the series with BV-2 [2], the Activity is 22.4%.

As for `Cc1c(-c2ccccc2)oc2c(-c3nc(-c4ccccc4Br)no3)cccc2c1=O`, the inhibition result with BV-2 [1] is “Active”. The Activity in the series on BV-2 [2] came out at 41.6%.
